Where a SMILES comes first, the peptide text is derived from it. Bridges are numbered along the chain shown (N, C = ends). Roman numbers before positions name the chains, in order. [ ]: non-standard residue; d: D form. The star is where a group is joined. Arachidoyl = CCCCCCCCCCCCCCCCCCCC(=O)*; Stearoyl = CCCCCCCCCCCCCCCCCC(=O)*; Orn = NCCC[C@H](N)C(=O)O
Columns and labels:
[1] = system: murine blood coagulation factor VII mRNA; experiment: Gene downregulation in vivo (siFVII, mouse liver, qRT-PCR)
Protocol: For the gene downregulation studies male Balb/c, 2-4 month-old mice were used, with 2-5 mice per group. The CPP/siRNA complexes were formed at MR30 and for each mouse 1.6 mg/kg siRNA dose was used. Particle formulations were administered intravenously via tail vein injection, at 1.6 mg/kg siRNA dose. 48 h post treatment, liver tissues were harvested and snap-frozen for analyses. The tissues were homogenized using Precellys®24-Dual homogenization system (Bertin Technologies, France) with TRIzol reagent (Thermo Fisher Scientific). RNA was extracted according to TRIzol manufacturers protocol with slight modifications. RNA quality and concentration was assessed on 1.8% agarose gel and NanoDrop2000. From RNA complementary DNA was synthesized using SuperScript IV Reverse Transcriptase (Thermo Fisher Scientific) according to manufacturer's protocol. The synthesized cDNA was used for qPCR accompanied with 5× HOT FIREPol EvaGreen qPCR Supermix (Solis Biodyne, Estonia) according to manufacturer's protocol. The obtained data was analyzed using 2-ΔΔCT method and normalized to untreated mouse group (100%). siRNA against blood coagulation factor VII (siFVII) sense 5′-gga (2′F-U) (2′F-C) a (2′F-U) (2′F-C) (2′F-U) (2′F-C) aag (2′F-U) (2′F-C) (2′F-U) (2′F-U) a (2′F-C) T*T-3″ and antisense 5′-g (2′F-U) aaga (2′F-C) (2′F-U) (2′F-U) gaga (2′F-U) ga (2′F-U) (2′F-C) (2′F-C) T*T 3′. Primers for PCR (Mus blood coagulation factor VII) forward […] (SEQ ID NO:11), reverse: […] (SEQ ID NO:12) and (Mus Actin beta) forward: […] (SEQ ID NO: 13) and reverse: […] (SEQ ID NO:14). The siRNA and primers were synthesized by the same manufacturer (Metabion, Germany). Data was collected with ViiA 7 RT_PCR system and analysis based on […] and normalized to results from untreated mice.
As a control hydrodynamic injection of 600 ul of siRNA was used and untreated mice were included. All animal experiments and procedures were approved by the Estonian Laboratory Animal Ethics Committee (approvals no 81, dated Apr. 4, 2016, and 69 and 70, dated Feb. 9, 2011).

[2] = system: CHO stably expressing green fluorescent protein (GFP); experiment: GFP gene downregulation by CPP/siGFP complexes (lysate fluorescence, FACS, confocal); type: cell-based; conditions: for GFP signal in confocal images: live cells treated with CPP/siGFP complexes
Summary of the method: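 CHO-GFP cells (5×10^5/well) in serum-containing medium exposed 4 h at 37 °C to CPP/siGFP complexes (peptide:siRNA molar ratio 40:1, siRNA 100 nM final), then 44 h further culture. GFP read as protein-normalized lysate fluorescence, by FACS (fraction below 0.1% untreated-cell signal), or by confocal imaging after 48 h.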

[3] = Negative staining TEM of CPP/siRNA nanoparticles; type: physicochemical; conditions: CPP/siRNA complexes at MR30
Protocol: For the morphological analysis the CPP/siRNA complexes were assembled as described above at MR30. For negative staining, copper grids were covered with Formvar film and carbon layer using Leica EM ACE600 carbon coater (Leica Microsystems, Germany). Then, 10 μL of each sample was absorbed to the grids for 2 min and excess of solution was gently removed. Samples were then exposed to 2% aqueous uranyl acetate solution for 1 min. After removing excess stain with filter paper, the samples were allowed to air-dry. The samples were examined at 120 kV accelerating voltage on FEI Tecnai G2 Spirit electron microscope (FEI, The Netherlands).

[4] = system: subcutaneous HT-1080 tumor xenograft; experiment: Biodistribution of CPP/Cy5-siRNA nanoparticles, HT-1080 tumor; type: in vivo, mouse; conditions: peak at 3 h
Protocol: Human tumor xenografts (subcutaneous U87MG and HT-1080) were induced in mice (Hsd: Athymic Nude-Foxn1nu female, 2.5 month old, Harlan, UK). The xenografting was performed by implanting the cell suspension (1×10^6 cells in 100 ul volume of ice-cold DMEM without any supplements) subcutaneously to the flank.
At the appearance of tumor size of approx. 100 mm^3, mice were injected i.v. (via tail vein) with the CPP/siRNA complexes. Each animal received a single 200 ul i.v. injection of 20 ug Cy5-siRNA, formulated with CPPs at MR20 or MR40. As a control, 20 μg of un-complexed Cy5-labeled siRNA was administered. The biodistribution of Cy5-siRNA and CPP/Cy5-siRNA complexes was evaluated at different time points −0.5 h up to 6 h. For that, mice (n=2 in each treatment group) were imaged in vivo using IVIS Lumina II (CaliperLS, USA). Cy-5 fluorescence intensity values were acquired from the tumor region.

## CCCCCCCCCCCCCCCCCCCC(=O)N[C@@H](Cc1c[nH]cn1)C(=O)N[C@@H](Cc1c[nH]cn1)C(=O)N[C@@H](Cc1c[nH]cn1)C(=O)N[C@@H](Cc1c[nH]cn1)C(=O)N[C@@H](Cc1ccc(O)cc1)C(=O)N[C@@H](Cc1c[nH]cn1)C(=O)N[C@@H](Cc1c[nH]cn1)C(=O)NCC(=O)NCCC[C@H](N)C(=O)N[C@H](C(=O)N[C@@H](CC(C)C)C(=O)N[C@@H](CC(C)C)C(=O)N[C@@H](CCCCN)C(=O)N[C@@H](C)C(=O)N[C@@H](CC(C)C)C(=O)N[C@@H](CCCCN)C(=O)N[C@@H](C)C(=O)N[C@@H](CC(C)C)C(=O)N[C@@H](C)C(=O)N[C@@H](CCCCN)C(=O)N[C@@H](C)C(=O)N[C@H](C(=O)N[C@@H](CC(C)C)C(N)=O)[C@@H](C)CC)[C@@H](C)CC [NF70] (I: H-[Orn]ILLKALKALAKAIL-NH2 / II: Arachidoyl-HHHHYHHG; amide I:1-II:C)
[1]; 1.6 mg/kg siFVII, 48 h, liver
  RNA levels preserved compared to untreated mice: approximately 40%
[1]; 1.6 mg/kg siRNA
  downregulation compared to siRNA treated group: 30%
[1]; same 1.6 mg/kg dose
  downregulation compared to free siRNA and In vivo JetPEI at N/P6: higher downregulation effect
[1]; single i.v. injection, 1.6 mg/kg siRNA, MR30, 48 h, vs untreated mice
  downregulation of the target (FVII) in mouse liver: ~60%
[2]
  GFP signal in confocal images: detected GFP signal was the lowest
[3]
  length or size of elongated particles, conglomerates or aggregates (TEM): 40-80 nm
  nanoparticle diameter / size (TEM): 30-40 nm

## CCCCCCCCCCCCCCCCCC(=O)N[C@@H](Cc1c[nH]cn1)C(=O)N[C@@H](Cc1c[nH]cn1)C(=O)N[C@@H](Cc1ccc(O)cc1)C(=O)N[C@@H](Cc1c[nH]cn1)C(=O)N[C@@H](Cc1c[nH]cn1)C(=O)NCC(=O)NCCC[C@H](N)C(=O)N[C@H](C(=O)N[C@@H](CC(C)C)C(=O)N[C@@H](CC(C)C)C(=O)N[C@@H](CCCCN)C(=O)N[C@@H](C)C(=O)N[C@@H](CC(C)C)C(=O)N[C@@H](CCCCN)C(=O)N[C@@H](C)C(=O)N[C@@H](CC(C)C)C(=O)N[C@@H](C)C(=O)N[C@@H](CCCCN)C(=O)N[C@@H](C)C(=O)N[C@H](C(=O)N[C@@H](CC(C)C)C(N)=O)[C@@H](C)CC)[C@@H](C)CC [NF71] (I: H-[Orn]ILLKALKALAKAIL-NH2 / II: Stearoyl-HHYHHG; amide I:1-II:C)
[2]
  GFP signal in confocal images: detected GFP signal was the lowest
[2]; siGFP 100 nM
  downregulation of GFP (average, cell lysate fluorescence): lower than with H6^1-C20 or H8-C20
[4]
  peak accumulation in HT-1080 tumor relative to naked Cy5-siRNA: 37 fold
